Source: patent US8680275B2, “Fused heterocyclic compounds as orexin receptor modulators” (Janssen Pharmaceutica NV, priority 2009, dated 2014)

Legend:
human orexin-2 receptor = human orexin-2 receptor (Homo sapiens (Human), UniProt O43614); test: Human orexin 2 receptor radioligand binding ([3H]-EMPA competition); details: HEK293 cells stably expressing human orexin-2 receptor; [3H]-EMPA 5 nM final; read-out: OR-2 Ki
Method: (§1) The in vitro affinity of the compounds for the human orexin-1 and orexin-2 receptors was determined by competitive radioligand binding using [^3H]SB SB674042 (1-(5-(2-fluoro-phenyl)-2-methyl-thiazol-4-yl)-1-((S)-2-(5-phenyl-(1,3,4)oxadiazol-2-ylmethyl)-pyrrolidin-1-yl)methanone) (Langmead et al., British Journal of Pharmacology 2004, 141:340-346.) and [^3H]EMPA (N-ethyl-2[(6-methoxy-pyridin-3-yl)-(toluene-2-sulfonyl)-amino]-N-pyridin-3-ylmethyl acetamide) (Malherbe et al., British Journal of Pharmacology, 2009, 156(8), 1326-1341), respectively.
Human Orexin 2 Receptor Radioligand Binding Studies
HEK293 stably expressing human orexin-2 receptor (Genebank accession number NM_001526) were grown to confluency in DMEM/F12 (Gibco, Cat #11039), in DMEM, 10% FBS, 1× Pen/Strep, 1× NaPyruvate, 1×HEPES, 600 ug/ml G418 media on 150 cm^2 tissue culture plates, washed with 5 mM EDTA in PBS (HyClone Dulbecco's Phosphate Buffered Saline 1× with Calcium and Magnesium, Cat #SH30264.01, hereafter referred to simply as PBS) and scraped into 50 ml tubes. After centrifugation (2K xG, 10 min at 4° C.), the supernatant was aspirated and the pellets frozen and stored at −80° C. Cells were resuspended in PBS in the presence of 1 tablet of protease inhibitor cocktail (Roche, Cat. #11836145001) per 50 mL. […] Competition binding experiments in 96 well polypropylene plates were performed using [^3H]-EMPA (Moravek Corporation, specific activity=27 Ci/mmol), diluted to a […] concentration in PBS (5 nM final concentration). Compounds were solubilized in 100% DMSO (Acros Organics, Cat. #61042-1000) and tested over a range of 7 concentrations (from 0.1 nM to 10 μM). The final concentration of DMSO in the reactions is equal to or less than 0.1%. Total and nonspecific binding was determined in the absence and presence of 10 μM (N-[2-(3,4-dimethoxyphenyl)ethyl]-N-methylnaphthalene-1-carboxamide, CAS Registry #1089563-88-1). The total volume of each reaction is 200 μL (20 μL of diluted compounds, 80 μL of [^3H]-EMPA diluted in PBS and 100 μL of the cell suspension). Reactions were run for 60 min at room temperature and terminated by filtration through GF/C filter plates (PerkinElmer, Cat. #6005174) presoaked in 0.3% polyethylenimine using the cell harvester (Perkin Elmer Filtermate). The plates were washed 3 times by aspirating 30 ml PBS through the plates. Plates were dried in 55° C. oven for 60 min, scintillation fluid was added, and the radioactivity was counted on a Topcount (Packard).

human orexin 1 receptor = human orexin 1 receptor (Homo sapiens (Human), UniProt O43613); test: Human orexin 1 receptor radioligand binding ([3H]-SB674042 competition); details: CHO cells stably expressing human orexin 1 receptor; [3H]-SB674042 4 nM final; read-out: OR-1 Ki
Chain of human orexin 1 receptor (O43613 whole entry): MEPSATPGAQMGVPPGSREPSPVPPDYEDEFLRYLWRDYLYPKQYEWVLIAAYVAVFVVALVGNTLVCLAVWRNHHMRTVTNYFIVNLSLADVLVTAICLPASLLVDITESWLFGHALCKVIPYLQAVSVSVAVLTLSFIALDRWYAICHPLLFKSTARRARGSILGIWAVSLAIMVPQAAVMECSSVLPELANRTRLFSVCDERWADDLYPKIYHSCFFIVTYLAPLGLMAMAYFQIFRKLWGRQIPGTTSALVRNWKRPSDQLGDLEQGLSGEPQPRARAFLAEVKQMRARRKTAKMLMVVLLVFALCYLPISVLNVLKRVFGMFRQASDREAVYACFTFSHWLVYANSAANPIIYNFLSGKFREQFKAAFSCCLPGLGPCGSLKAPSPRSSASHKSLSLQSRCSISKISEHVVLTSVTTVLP
Method: as §1
Human Orexin 1 Receptor Radioligand Binding Studies
Chinese ovary cells (CHO) stably expressing human orexin 1 receptor (Genebank accession number NM_001526) were grown to confluency in DMEM/F12 (Gibco, Cat #11039), 10% FBS, 1× Pen/Strep, 600 μg/mL G418 media on 150 cm^2 tissue culture plates, washed with 5 mM EDTA in PBS (HyClone Dulbecco's Phoshpate Buffered Saline 1× with Calcium and Magnesium, Cat #SH30264.01, hereafter referred to simply as PBS) and scraped into 50 ml tubes. After centrifugation (2K xG, 10 min at 4° C.), the supernatant was aspirated and the pellets frozen and stored at −80° C. Cells were resuspended in PBS in the presence of 1 tablet of protease inhibitor cocktail (Roche, Cat. #11836145001) per 50 mL. […] Compounds were solubilized in 100% DMSO (Acros Organics, Cat. #61042-1000) and tested over a range of 7 concentrations (from 0.1 nM to 10 μM). The final concentration of DMSO in the reactions is equal to or less than 0.1%. Total and nonspecific binding was determined in the absence and presence of 10 μM (1-(6,8-difluoro-2-methylquinolin-4-yl)-3-[4-(dimethylamino)phenyl]urea, CAS Registry #288150-92-5). The total volume of each reaction is 200 μL (20 μL of diluted compounds, 80 μL of [^3H]-SB674042 diluted in PBS and 100 μL of the cell suspension). Reactions were run for 60 min at room temperature and terminated by filtration through GF/C filter plates (PerkinElmer, Cat. #6005174) presoaked in 0.3% polyethylenimine using the cell harvester (PerkinElmer Filtermate). The plates were washed 3 times by aspirating 30 ml PBS through the plates. Plates were dried in 55° C. oven for 60 min, scintillation fluid was added, and the radioactivity was counted on a Topcount (Packard).

Chain of human orexin-2 receptor (O43614 whole entry): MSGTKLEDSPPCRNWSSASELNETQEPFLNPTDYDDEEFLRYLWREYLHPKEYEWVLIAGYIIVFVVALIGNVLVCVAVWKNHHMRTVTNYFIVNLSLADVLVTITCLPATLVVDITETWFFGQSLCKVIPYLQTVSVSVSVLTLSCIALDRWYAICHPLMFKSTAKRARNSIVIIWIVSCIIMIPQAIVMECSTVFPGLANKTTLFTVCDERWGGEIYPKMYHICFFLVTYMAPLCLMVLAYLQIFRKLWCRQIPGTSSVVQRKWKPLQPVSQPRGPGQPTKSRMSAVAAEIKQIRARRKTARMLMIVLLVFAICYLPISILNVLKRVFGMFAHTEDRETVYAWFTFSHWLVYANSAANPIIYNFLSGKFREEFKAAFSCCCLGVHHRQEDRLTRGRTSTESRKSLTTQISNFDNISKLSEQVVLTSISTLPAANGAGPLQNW

Compound | Ki (human orexin-2 receptor) | Ki (human orexin 1 receptor)
CN(C)c1nc(N2C[C@@H]3CCN(C(=O)c4ccccc4-n4nccn4)C[C@@H]32)cc(C(F)(F)F)n1 [Example 36, (1R,6S)-[8-(2-Dimethylamino-6-trifluoromethyl-pyrimidin-4-yl)-3,8-diaza-bicyclo[4.2.0]oct-3-yl]-(2-[1,2,3]triazol-2-yl-phenyl)-methanone] | 5 nM | 11 nM
CN(C)c1nc(N2C[C@@H]3CCN(C(=O)c4c(F)cccc4-n4nccn4)C[C@@H]32)cc(C(F)(F)F)n1 [Example 37, (1R,6S)-[8-(2-Dimethylamino-6-trifluoromethyl-pyrimidin-4-yl)-3,8-diaza-bicyclo[4.2.0]oct-3-yl]-(2-fluoro-6-[1,2,3]triazol-2-yl-phenyl)-methanone] | 10 nM | 19 nM
CN(C)c1nc(N2C[C@@H]3CCN(C(=O)c4ccc(F)cc4-n4nccn4)C[C@@H]32)cc(C(F)(F)F)n1 [Example 38, (1R,6S)-[8-(2-Dimethylamino-6-trifluoromethyl-pyrimidin-4-yl)-3,8-diaza-bicyclo[4.2.0]oct-3-yl]-(4-fluoro-2-[1,2,3]triazol-2-yl-phenyl)-methanone] | 16 nM | 77 nM
O=C(c1ccccc1-n1nccn1)N1CC[C@H]2CN(c3cnc4ccccc4n3)[C@H]2C1 [Example 39, (1R,6S)-(8-Quinoxalin-2-yl-3,8-diaza-bicyclo[4.2.0]oct-3-yl)-(2-[1,2,3]triazol-2-yl-phenyl)methanone] | 20 nM | 32 nM
Cc1cc(N2C[C@@H]3CCN(C(=O)c4cc(F)ccc4-n4nccn4)C[C@@H]32)nc(N(C)C)n1 [Example 40, (1R,6S)-[8-(2-Dimethylamino-6-methyl-pyrimidin-4-yl)-3,8-diaza-bicyclo[4.2.0]oct-3-yl]-(5-fluoro-2-[1,2,3]triazol-2-yl-phenyl)-methanone] | 91 nM | 1210 nM
Cc1cc(N2C[C@@H]3CCN(C(=O)c4ccccc4-n4nccn4)C[C@@H]32)nc(N(C)C)n1 [Example 43, (1R,6S)-[8-(2-Dimethylamino-6-methyl-pyrimidin-4-yl)-3,8-diaza-bicyclo[4.2.0]oct-3-yl]-(2-[1,2,3]triazol-2-yl-phenyl)-methanone] | 90 nM | 475 nM
Cc1cc(N2C[C@@H]3CCN(C(=O)c4c(F)cccc4-n4nccn4)C[C@@H]32)nc(N(C)C)n1 [Example 44, (1R,6S)-[8-(2-Dimethylamino-6-methyl-pyrimidin-4-yl)-3,8-diaza-bicyclo[4.2.0]oct-3-yl]-(2-fluoro-6-[1,2,3]triazol-2-yl-phenyl)-methanone] | 73 nM | 480 nM
CN(C)c1nc(N2C[C@@H]3CCN(C(=O)c4cc(F)ccc4-n4nccn4)C[C@@H]32)cc(C(F)(F)F)n1 [Example 46, (1R,6S)-[8-(2-Dimethylamino-6-trifluoromethyl-pyrimidin-4-yl)-3,8-diaza-bicyclo[4.2.0]oct-3-yl]-(5-fluoro-2-[1,2,3]triazol-2-yl-phenyl)-methanone] | 15 nM | 47 nM
O=C(c1ccccc1-c1ccccc1)N1CC2CN(c3nccc(-c4ccccc4)n3)C2C1 (stereo not drawn) [Example 47, 3-(Biphenyl-2-ylcarbonyl)-6-(4-phenylpyrimidin-2-yl)-3,6-diazabicyclo[3.2.0]heptane] | 132 nM | 206 nM
O=C(c1ccccc1-c1ccccc1)N1CC2CN(c3cnc4ccccc4n3)C2C1 (stereo not drawn) [Example 48, 2-[3-(Biphenyl-2-ylcarbonyl)-3,6-diazabicyclo[3.2.0]hept-6-yl]quinoxaline] | 179 nM | 258 nM
O=C(c1ccccc1-c1cccs1)N1CC2CN(c3cnc4ccccc4n3)C2C1 (stereo not drawn) [Example 49, 2-{3-[(2-Thiophen-2-ylphenyl)carbonyl]-3,6-diazabicyclo[3.2.0]hept-6-yl}quinoxaline] | 77 nM | 114 nM
O=C(c1ccccc1-c1cccs1)N1CC2CN(c3nccc(-c4ccccc4)n3)C2C1 (stereo not drawn) [Example 50, 6-(4-Phenylpyrimidin-2-yl)-3-[(2-thiophen-2-ylphenyl)carbonyl]-3,6-diazabicyclo[3.2.0]heptane] | 94 nM | 39 nM
Cc1nc(C(=O)N2CC3CN(c4cnc5ccccc5n4)C3C2)c(-c2ccccc2F)s1 (stereo not drawn) [Example 51, 2-(3-{[5-(2-Fluorophenyl)-2-methyl-1,3-thiazol-4-yl]carbonyl}-3,6-diazabicyclo[3.2.0]hept-6-yl)quinoxaline] | 501 nM | 432 nM
Cc1nc(C(=O)N2CC3CN(c4nccc(-c5ccccc5)n4)C3C2)c(-c2ccccc2F)s1 (stereo not drawn) [Example 52, 3-{[5-(2-Fluorophenyl)-2-methyl-1,3-thiazol-4-yl]carbonyl}-6-(4-phenylpyrimidin-2-yl)-3,6-diazabicyclo[3.2.0]heptane] | 137 nM | 104 nM
COc1ccccc1C(=O)N1CC2CN(c3nccc(-c4ccccc4)n3)C2C1 (stereo not drawn) [Example 53, 3-[(2-Methoxyphenyl)carbonyl]-6-(4-phenylpyrimidin-2-yl)-3,6-diazabicyclo[3.2.0]heptane] | 1810 nM | 3700 nM
COc1ccccc1C(=O)N1CC2CN(c3cnc4ccccc4n3)C2C1 (stereo not drawn) [Example 54, 2-{3-[(2-Methoxyphenyl)carbonyl]-3,6-diazabicyclo[3.2.0]hept-6-yl}quinoxaline] | 2420 nM | 3450 nM
Cc1cc(C)nc(N2CC3CN(C(=O)c4ccccc4-c4cccs4)CC32)n1 (stereo not drawn) [Example 57, 6-(4,6-Dimethylpyrimidin-2-yl)-3-[(2-thiophen-2-ylphenyl)carbonyl]-3,6-diazabicyclo[3.2.0]heptane] | 29 nM | 3570 nM
Cc1cc(C)nc(N2CC3CN(C(=O)c4ccccc4Br)CC32)n1 (stereo not drawn) [Example 58, 3-[(2-Bromophenyl)carbonyl]-6-(4,6-dimethylpyrimidin-2-yl)-3,6-diazabicyclo[3.2.0]heptane] | 1050 nM | 9650 nM
Cc1ccnc(N2CC3CN(C(=O)c4ccccc4Br)CC32)n1 (stereo not drawn) [Example 59, (2-Bromo-phenyl)-[6-(4-methyl-pyrimidin-2-yl)-3,6-diaza-bicyclo[3.2.0]hept-3-yl]-methanone] | 9320 nM | 10000 nM
Cc1ccnc(N2CC3CN(C(=O)c4ccccc4-c4cccs4)CC32)n1 (stereo not drawn) [Example 60, 6-(4-Methylpyrimidin-2-yl)-3-[(2-thiophen-2-ylphenyl)carbonyl]-3,6-diazabicyclo[3.2.0]heptane] | 188 nM | 10000 nM
Cc1ccnc(N2CC3CN(C(=O)c4ccccc4-c4ccccc4)CC32)n1 (stereo not drawn) [Example 61, 3-(Biphenyl-2-ylcarbonyl)-6-(4-methylpyrimidin-2-yl)-3,6-diazabicyclo[3.2.0]heptane] | 980 nM | 10000 nM
